Measurements taken from EP4342530A1, “SORTILIN MODULATORS” (Insusense ApS, priority 2022, dated 2024).

Key:
[1] = molecular target: T1, Sortilin (Homo sapiens, UniProt Q99523); test: Creoptix (GCI) binding kinetics, human Sortilin; conditions: Species Human, screened at 1 µM, 25 degrees Celsius
T1 construct: purchased Bio-Techne Ltd 3154-ST-050
T1 sequence (Q99523 78-755 limits assumed): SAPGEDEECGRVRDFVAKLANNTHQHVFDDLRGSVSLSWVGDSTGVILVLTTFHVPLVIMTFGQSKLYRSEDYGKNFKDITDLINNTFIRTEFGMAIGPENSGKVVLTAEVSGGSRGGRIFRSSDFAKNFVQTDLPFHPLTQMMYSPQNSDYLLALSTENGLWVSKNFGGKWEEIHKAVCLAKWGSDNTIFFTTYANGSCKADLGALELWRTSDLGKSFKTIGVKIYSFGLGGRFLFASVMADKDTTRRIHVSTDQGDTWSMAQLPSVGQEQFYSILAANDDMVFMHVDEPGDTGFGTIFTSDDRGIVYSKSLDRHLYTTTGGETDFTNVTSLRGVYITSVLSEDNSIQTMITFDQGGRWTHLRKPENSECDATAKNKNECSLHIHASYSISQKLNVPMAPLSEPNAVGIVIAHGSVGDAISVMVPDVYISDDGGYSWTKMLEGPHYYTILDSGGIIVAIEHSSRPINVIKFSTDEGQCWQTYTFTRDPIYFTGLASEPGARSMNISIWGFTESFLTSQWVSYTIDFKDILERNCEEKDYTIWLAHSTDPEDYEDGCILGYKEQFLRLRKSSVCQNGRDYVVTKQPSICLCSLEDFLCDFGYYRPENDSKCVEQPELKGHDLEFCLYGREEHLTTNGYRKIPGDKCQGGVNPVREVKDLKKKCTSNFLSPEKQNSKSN
Procedure: (§1) Creoptix (GCI) method - using SEQ ID NO.4 (Murine sortillin)
(§2) A protein, bound to a surface, is bathed in a solution containing potential ligands giving rise to binding kinetics to generate Kon and Koff rates, as well as a Kd.
(§3) All buffers described were filtered using a 0.2µm filter (Product number: 10300461, Nalgene) and degassed for 15 minutes prior to use.
(§4) A flow cell temperature of 25 degrees Celsius was used throughout the experiment.
(§5) A 4PCH chip was conditioned across all flow cells using 0.2 X concentration running buffer (running buffer composition: 1XHBS-N, pH 7.4, 3.4 mM EDTA, 1% DMSO) using pre-set conditioning wizard (WAVE control software) injecting: 0.1 M borate, 1 M NaCl (pH 9) followed by three start-up injections of 0.2 X running buffer.
(§6) A buffer exchange was performed and 1x running buffer (1XHBS-N, pH 7.4, 3.4 mM EDTA, 1% DMSO) used during the immobilisation procedure: An initial injection of EDC/NHS (mixed in 1:1 ratio) was performed across all 4-flow cells to activate the surface for amine coupling of ligands.
(§7) Recombinant Sortilin aliquots were thawed quickly by hand and centrifuged at 13,300 rpm for 10 minutes. A 10 µg/ml protein solution was then made in pH 5.0 acetate and injected once for 20 minutes over flow-cells 2, 3 and 4 for human, human (flow cells 2 & 3), and mouse Sortilin respectively followed by a 60 second dissociation period.
(§8) A final 7-minute passivation injection of 50 mM tris was used across all flow cells.
(§9) A flow rate of 10 µl/min was used for all conditioning and immobilisation cycles.
(§10) Compounds were screened at 1 µM using the in-built 'intermediate binders' settings: 100 ul/min, 45 s baseline, 25 s association, 300 s dissociation, with blanks every 5th sample and a DMSO correction (1.5 % DMSO at the start and end of the experiment as well as every 20 cycles. An acquisition rate of 10 Hz was used throughout the experiment.
(§11) Compounds were screened at a final assay concentration of 1 µM and a final DMSO concentration was 1 %. To achieve this, compounds were diluted in DMSO from 10 mM stocks to 100 µM (100 x final assay concentration) then diluted 1:100 in running buffer which contained no DMSO to establish a final assay concentration of compound of 1 µM and a final DMSO concentration of 1 % [DMSO].
(§12) Compounds and DMSO were mixed by plate shaking at 1000 rpm for 60 seconds using a Bioshake instrument.
(§13) A flow rate of 100 µl/min was used throughout the experiment.
(§14) Data was evaluated using the RAPID kinetic analysis tool in the GCI WAVE_control software with data fitted using a standard 1:1 kinetic BioModel.

[2] = molecular target: T2, Sortilin (Mus musculus, UniProt Q6PHU5); test: Creoptix (GCI) binding kinetics, mouse Sortilin; conditions: Species Mouse, screened at 1 µM, 25 degrees Celsius
T2 construct: purchased Bio-Techne Ltd 2934-ST-050
T2 sequence (Q6PHU5 76-753 limits assumed): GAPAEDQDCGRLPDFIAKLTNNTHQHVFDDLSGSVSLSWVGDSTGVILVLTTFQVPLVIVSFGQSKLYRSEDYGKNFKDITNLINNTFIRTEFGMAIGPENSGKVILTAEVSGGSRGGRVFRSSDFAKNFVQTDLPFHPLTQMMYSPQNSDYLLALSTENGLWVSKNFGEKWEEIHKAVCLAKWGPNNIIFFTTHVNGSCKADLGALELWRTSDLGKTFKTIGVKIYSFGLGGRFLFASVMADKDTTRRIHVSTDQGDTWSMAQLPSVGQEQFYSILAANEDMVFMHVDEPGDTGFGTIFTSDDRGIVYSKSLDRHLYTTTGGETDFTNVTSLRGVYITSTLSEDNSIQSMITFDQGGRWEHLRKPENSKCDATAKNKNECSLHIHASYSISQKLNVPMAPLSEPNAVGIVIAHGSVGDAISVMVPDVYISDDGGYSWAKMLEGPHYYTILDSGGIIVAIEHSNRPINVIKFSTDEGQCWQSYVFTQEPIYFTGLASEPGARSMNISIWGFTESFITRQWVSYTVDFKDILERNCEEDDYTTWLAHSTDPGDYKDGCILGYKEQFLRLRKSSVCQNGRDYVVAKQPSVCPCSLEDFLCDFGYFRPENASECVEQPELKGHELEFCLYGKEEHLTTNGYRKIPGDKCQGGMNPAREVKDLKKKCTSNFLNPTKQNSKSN
Procedure: as §1, §2, §3, §4, §5, §6, §7, §8, §9, §10, §11, §12, §13, §14

Kd ([1]; Form of Compound Free acid) [nM] | Kd ([1]; Form of Compound Mesylate salt) [nM] | Kd ([2]; Form of Compound Free acid) [nM] | Kd ([2]; Form of Compound Mesylate salt) [nM] | SMILES
237 | 52 | 65 | – | CC(C)(C)CC[C@H](NCc1ccc2c(c1)COCC2)C(=O)O [Example 3, (S)-2-((isochroman-7-ylmethyl)amino)-5,5-dimethylhexanoic acid]
227 | 64.9 | 60 | 59.5 | C[C@@H](N[C@@H](CCC(C)(C)C)C(=O)O)c1ccc2c(c1)OCCC2 [Example 9]
120 | 221 | 258 | 258 | C[C@H](N[C@@H](CCC(C)(C)C)C(=O)O)c1ccc2c(c1)CCCO2 [Example 50]
384 | 133 | – | 129 | C[C@@H](N[C@@H](CCC(C)(C)C)C(=O)O)c1ccc2c(c1)CCCO2 [Example 52]
